Reference: patent publication US20220306640A1, “HYDANTOIN DERIVATIVE” (ONO PHARMACEUTICAL CO., LTD., priority 2019, published 2022)

Biological target: T1, DDR1 (Homo sapiens, UniProt Q08345)
T1 construct: purchased Invitrogen
Test: Measurement of DDR1 inhibitory activity (LanthaScreen system, in vitro test)
Assay type: binding
Conditions: GST-DDR1, Kinase tracer 178
Method in brief: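 TR-FRET tracer-displacement binding assay with GST-DDR1, Kinase tracer 178 and Eu-anti-GST antibody in HEPES pH 7.5, MgCl2, EGTA, Brij-35 buffer, 1% DMSO. Compound preincubated with enzyme 15 min at RT, then tracer/antibody 1 h at RT; 665/615 nm read. Percent inhibition versus no-enzyme and DMSO controls; IC50 from inhibition curves.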

T1 sequence (Q08345 19-913): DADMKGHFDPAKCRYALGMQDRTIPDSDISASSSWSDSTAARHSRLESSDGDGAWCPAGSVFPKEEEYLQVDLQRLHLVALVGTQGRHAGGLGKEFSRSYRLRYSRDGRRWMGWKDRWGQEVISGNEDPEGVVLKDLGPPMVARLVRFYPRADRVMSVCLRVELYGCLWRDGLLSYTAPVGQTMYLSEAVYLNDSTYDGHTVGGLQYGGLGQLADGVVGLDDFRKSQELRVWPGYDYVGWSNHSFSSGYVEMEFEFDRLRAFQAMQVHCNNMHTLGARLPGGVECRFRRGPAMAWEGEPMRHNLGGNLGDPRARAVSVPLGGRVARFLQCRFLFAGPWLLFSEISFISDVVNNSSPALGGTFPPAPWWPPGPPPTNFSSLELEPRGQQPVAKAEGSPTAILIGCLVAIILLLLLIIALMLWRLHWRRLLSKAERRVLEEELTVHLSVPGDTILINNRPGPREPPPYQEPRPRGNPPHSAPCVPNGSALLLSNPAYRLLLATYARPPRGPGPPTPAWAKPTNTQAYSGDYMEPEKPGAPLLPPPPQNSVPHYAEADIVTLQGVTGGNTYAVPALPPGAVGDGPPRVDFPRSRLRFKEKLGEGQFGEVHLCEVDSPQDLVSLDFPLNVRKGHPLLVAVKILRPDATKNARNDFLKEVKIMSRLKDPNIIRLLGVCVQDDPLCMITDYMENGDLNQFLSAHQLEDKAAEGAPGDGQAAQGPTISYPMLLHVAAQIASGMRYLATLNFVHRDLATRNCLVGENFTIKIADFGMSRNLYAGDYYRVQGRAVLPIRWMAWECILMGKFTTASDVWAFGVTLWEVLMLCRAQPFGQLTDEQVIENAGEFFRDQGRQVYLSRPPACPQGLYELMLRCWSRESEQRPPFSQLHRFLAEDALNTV

Question: How did the IC50 turn out when `Cc1cc(Oc2ccnc(N)n2)ccc1N1C(=O)CN(c2ccc(F)c(OC(F)(F)F)c2)C1=O` [Example 3(110), 3-{4-[(2-amino-4-pyrimidinyl)oxy]-2-methylphenyl}-1-[4-fluoro-3-(trifluoromethoxy)phenyl]-2,4-imidazolidinedione] was run?
Answer: The IC50 was 1 nM.
